# Like-named read-outs stand apart in the source and are kept apart here.
# What was measured:
# [1] = system: HIVBaL; test: XTT cytoprotection assay, monocyte-macrophages infected with HIVBaL; assay type: cell-based, HIV; conditions: for EC50: monocyte-macrophages infected with HIVBaL, XTT
# Protocol: (§1) The HIV cytoprotection assay has been previously described in Weislow, O, S. et al., J. Natl. Cancer Inst. 81, 577-86 (1989); Rice, W. G. et al., Antimicrob. Agents Chemother. 41, 419-26 (1997), and Rice, W. G. et al., Proc. Natl. Acad. Sci. USA 90, 9721-4 (1993). CEM-SS cells infected with HIV-1IIIB or monocyte-macrophages infected with HIVBaL were incubated with the compound for 6 days and antiviral activity determined by measurement of cell survival (cytoprotection) using XTT (2,3-bis(2-methoxy-4-nitro-5-sulfophenyl)-5-[(phenylamino)carbonyl]-2H-tetrazolium hydroxide) dye reduction. AZT was used as a positive control for all assays with each assay performed in duplicate with triplicate determinations per condition. Compound toxicity was measured the same way in uninfected CEM-SS cells. Effective antiviral concentrations providing 50% cytoprotection (EC50) and cellular growth inhibitory concentrations causing 50% cytotoxicity (IC50) were calculated.
# Three compounds were assayed for antiviral activity using the XTT cytoprotection assay in CEM-SS cells infected with HIV-1IIIB and in monocyte-macrophages infected with HIVBaL and assayed for virucidal activity. The compounds are compound 7a (invention), 8 (comparative), and 7f (comparative). The structure of compound 8 is as follows:
# (§2) Four compounds along with a positive control were assayed for antiviral activity using the XTT cytoprotection assay as described in Example 4. The cells used were CEM-SS cells infected with HIV-1RF, monocyte-macrophages infected with HIVBaL, and peripheral blood mononuclear cells (PBMC) infected with HIV-1HT/92/599. The compounds are compound 8 (comparative), 7a (invention), 10 (invention), 11 (invention), and 12 (invention).
# [2] = system: monocyte-macrophages; test: Compound toxicity in monocyte-macrophages; assay type: cell-based; conditions: Table 2; read-out: TC50, Monocyte/Macrophage
# [3] = Compound toxicity in monocyte-macrophages; assay type: cell-based; conditions: human, monocyte-macrophages; Table 1; read-out: TC50, Monocytes-macrophages
# [4] = pH stability in buffers (RP-HPLC); assay type: physicochemical; conditions: 250 μM; pH 5.0, 7.0, 9.0 buffers; 25° C., 30 days; FIG. 5
# Protocol: This example illustrates the pH stability of compound 7a. Compound 7a was dissolved in DMSO and diluted into the 100 mM sodium acetate buffer at pH 5.0 (shown in FIG. 5 as diamonds), 100 mM sodium phosphate buffer at pH 7.0 (shown in FIG. 5 as circles), and 100 mM Tris-HCl buffer at pH 9.0 (shown in FIG. 5 as squares) at a final compound concentration of 250 μM. The samples were incubated at 25° C. over the course of 30 days and the amount of intact compound was measured over time using RP-HPLC. The results are illustrated in FIG. 5.
# [5] = system: HIV-1HT/92/599; test: XTT cytoprotection assay, PBMC infected with HIV-1HT/92/599; assay type: cell-based; conditions: Human immunodeficiency virus 1; Table 2; PBMC infected with HIV-1HT/92/599, XTT; read-out: EC50 (50% cytoprotection), PBMC
# Protocol: as §1, §2
# [6] = Compound toxicity by XTT in uninfected CEM-SS cells; assay type: cell-based; conditions: human; Table 1; uninfected CEM-SS cells, XTT; read-out: TC50, CEM-SS cells
# Protocol: as §1
# [7] = system: CEM-SS cells; test: as above; assay type: cell-based; conditions: Table 2; read-out: TC50, CEM-SS cells
# Protocol: as §1
# [8] = Human plasma stability (RP-HPLC); assay type: in vitro ADME; conditions: 20 μM in 50% human plasma in PBS, 37° C., 1 hour; FIG. 7
# Protocol: Compound 8 (comparative), compound 7a (invention), compound 10 (invention), compound 11 (invention), and compound 12 (invention) were dissolved in DMSO and diluted into 50% human plasma in PBS buffer at a final concentration of 20 μM. The samples were incubated at 37° C. for 1 hour and the amount of intact compound measured using RP-HPLC. The results are illustrated in FIG. 7.
# [9] = Stability in vaginal fluid simulant (RP-HPLC); assay type: physicochemical; conditions: 400 μM; 25° C., 30 days; FIG. 6; compared with compound 8
# Protocol: The final concentration of the compounds was 400 μM. The samples were incubated at 25° C. over the course of 30 days and the amount of intact compound was measured over time using RP-HPLC. […] The results are illustrated in FIG. 6.
# [10] = system: HIV-1IIIB; test: Cell-free virus inactivation (virucidal) assay; assay type: cell-based; conditions: for EC50: Human immunodeficiency virus 1, Table 1, HIV-1IIIB incubated with compound 2 h at 37° C., then added to CEM-SS cells
# Protocol: Cell-free virus inactivation assays were performed as previously described in Song, Y. et al., Bioorg. Med. Chem. 10, 1263-73 (2002). Briefly, HIV-1IIIB was incubated with three concentrations of each compound for 2 h at 37° C. and then pelleted at 4° C. for 90 minutes at 18,000×g. Following several washes with DPBS to remove unbound compound, the virus was resuspended in cell culture media and added to CEM-SS cells at a titer to yield 85-90% cell killing at day 6 post-infection.
# [11] = system: HIV-1RF; test: XTT cytoprotection assay, CEM-SS cells infected with HIV-1RF; assay type: cell-based; conditions: Human immunodeficiency virus 1, Table 2, read-out: EC50 (50% cytoprotection), CEM-SS cells
# Protocol: as §1, §2
# [12] = system: HIV-1IIIB; test: XTT cytoprotection assay, CEM-SS cells infected with HIV-1IIIB; assay type: cell-based; conditions: Human immunodeficiency virus 1, 144 h, Table 1, 6 days, read-out: EC50 (50% cytoprotection), CEM-SS cells
# Protocol: as §1
# Three compounds were assayed for antiviral activity using the XTT cytoprotection assay in CEM-SS cells infected with HIV-1IIIB and in monocyte-macrophages infected with HIVBaL and assayed for virucidal activity. The compounds are compound 7a (invention), 8 (comparative), and 7f (comparative).
# [13] = Compound toxicity in PBMC; assay type: cell-based; conditions: human, peripheral blood mononuclear cells (PBMC); Table 2; read-out: TC50, PBMC
# Protocol: as §1, §2
# [14] = Human immunodeficiency virus 1, 144 h, Table 1, 6 days, read-out: EC50 (50% cytoprotection), Monocytes-macrophages
# [15] = Human immunodeficiency virus 1, Table 2, read-out: EC50 (50% cytoprotection), Monocyte/Macrophage
"EC50 [1, 14]","EC50 [1, 15]","pH stability, intact compound over time [4]",EC50 [5],"stability in human plasma, intact compound [8]","stability in vaginal fluid simulant, intact compound over time [9]",EC50 [11],EC50 [12],SMILES,CC50 [2],CC50 at 6 days [3],CC50 at 6 days [6],CC50 [7],EC50 [10],CC50 at 6 days [13],activity in cytoprotection assay against infected monocytes-macrophages ([1]; as compared to compound 7a),"activity in the antiviral assay against HIV-1IIIB ([10]; virucidal assay, as compared to compound 7a)"
0.6 µM,0.62 µM,most stable at acidic pH,4.06 µM,did not exhibit stability,significantly more stable,0.2 µM,0.2 µM,"CC(C)C(=O)Oc1ccc(CSc2ccccc2C(=O)NCCC(N)=O)cc1 [Compound 7a, N-{2-[4-(isopropylcarbonyloxy)benzylthio]benzoyl}-β-alaninamide]",> 100 µM,> 100 µM,> 100 µM,> 100 µM,9.8 µM,> 100 µM,–,–
> 100 µM,–,–,–,–,–,–,34.9 µM,NC(=O)CCNC(=O)c1ccccc1SCc1ccccc1 [Compound 7f],–,> 100 µM,> 100 µM,–,> 100 µM,–,inactive,inactive
2 µM,1.97 µM,–,5.74 µM,–,–,0.6 µM,0.6 µM,CC(=O)Sc1ccccc1C(=O)NCCC(N)=O [Compound 8],> 100 µM,> 100 µM,> 100 µM,> 100 µM,0.9 µM,> 100 µM,–,–
